The assay concerns the target T1, recombinant CETP (rCETP) (Homo sapiens, UniProt P11597).
T1 sequence (P11597 18-493): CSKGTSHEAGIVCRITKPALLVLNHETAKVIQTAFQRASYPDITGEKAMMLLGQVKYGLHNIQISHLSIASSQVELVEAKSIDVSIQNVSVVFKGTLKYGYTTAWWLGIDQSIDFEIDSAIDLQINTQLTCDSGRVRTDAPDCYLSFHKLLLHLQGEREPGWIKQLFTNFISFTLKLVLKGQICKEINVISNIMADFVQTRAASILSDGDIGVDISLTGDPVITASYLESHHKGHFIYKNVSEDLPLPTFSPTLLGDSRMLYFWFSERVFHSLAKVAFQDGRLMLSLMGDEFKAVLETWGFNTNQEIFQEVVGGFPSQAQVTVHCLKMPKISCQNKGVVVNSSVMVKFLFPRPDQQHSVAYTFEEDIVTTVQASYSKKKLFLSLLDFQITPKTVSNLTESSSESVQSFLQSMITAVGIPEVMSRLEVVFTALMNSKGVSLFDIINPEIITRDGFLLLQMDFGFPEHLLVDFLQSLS
The assay is described as follows: RTA assay using recombinant CETP (2% RTA). The format is biochemical. As for the experimental part: In Vitro Radioactive Assays of CETP-Catalyzed CE and TG Transfer (RTA Assay)
Reagents and sources are: [3H] cholesteryl oleate (GE #TRK.886), [3H]
Both assays measure the transfer of [3H] cholesteryl oleate or [3H]triolein from exogenous LDL to HDL.
After a brief vortex, the solution is sonicated until clear and mixed with 20 mL of fresh human serum. The mixture is incubated overnight at 37° C. […] Once isolated the particles are dialyzed 3× in CETP buffer (50 mM Tris, pH 7.4, 100 mM NaCl, 1 mM EDTA). Human HDL is purchased from Intracel and used as the acceptor particles.
Transfer assays are performed in a 96-well v-bottom polypropylene plate. […] 1 μL of each test compound diluted in DMSO is added to 47 μL of assay cocktail per well and incubated at 37° C. for 1 hour. To initiate the transfer reaction, 2 μL radiolabeled LDL is added. After an additional 60 min of incubation at 37° C., the transfer action is terminated by precipitation of LDL with an equal volume of 20% W/V PEG 8000. The plates are centrifuged at 2000 rpm for 30 minutes at 4° C. A 40 μL aliquot of the HDL-containing supernatant is transferred to a Packard Optiplate with 200 μL of MicroScint 20. After mixing, plates are counted by liquid scintillation. Counts present in the supernatant for blanks (wells containing only HDL acceptor, CETP buffer and DMSO) are subtracted from those containing test compounds and used to correct for non-specific transfer.
Comparison of the counts of samples with inhibitors to an uninhibited (DMSO only) positive control yield a percent inhibition. A plot of percent inhibition vs. log of inhibitor concentration, fit to a Sigmoidal 4 parameter equation is used to calculate IC50.

The mark [1] stands for this setting: RTA assay in 2% human serum, read-out: IC50.

Like-named read-outs stand apart in the source and are kept apart here.

As to `COc1cc2c(cc1-c1ccc(N3CCC3)nc1CN1C(=O)O[C@H](c3cc(C(F)(F)F)cc(C(F)(F)F)c3)[C@@H]1C)C(CC(=O)O)CC2` (stereo partly shown) [Example 78], the IC50 under setting [1] amounted to 18 nM. As to `COc1ccc(-n2ncc(C(=O)O)c2C(F)(F)F)cc1-c1c(C)cc(N2CCC2)nc1CN1C(=O)O[C@H](c2cc(C(F)(F)F)cc(C(F)(F)F)c2)[C@@H]1C` [Example 285], under setting [1], the IC50 turned out to be 4 nM.

For `COc1ccc(Cl)cc1-c1ccc(N2CCC2)nc1CN1C(=O)O[C@H](c2cc(C(F)(F)F)cc(C(F)(F)F)c2)[C@@H]1C` [Example 27, (4S,5R)-3-{[6-azetidin-1-yl-3-(5-chloro-2-methoxyphenyl)pyridin-2-yl]methyl}-5-[3,5-bis(trifluoromethyl)phenyl]-4-methyl-1,3-oxazolidin-2-one], under setting [1], the IC50 was determined as 3 nM. For `COC(=O)CCc1ccc(OC)c(-c2cnc(N3CC(F)(F)C3)nc2CN2C(=O)O[C@H](c3cc(C(F)(F)F)cc(C(F)(F)F)c3)[C@@H]2C)c1` [Example 144], the IC50 under setting [1] was 17 nM. Consider `COc1ccc(-c2csc(C(=O)O)c2C)cc1-c1ccc(N2CCC2)nc1CN1C(=O)O[C@H](c2cc(C(F)(F)F)cc(C(F)(F)F)c2)[C@@H]1C` [Example 108], for which, under setting [1], the IC50 was determined as 5 nM. For the molecule `COc1ccc([C@H]2CC[C@H](C(=O)OC)CC2)cc1-c1cnc(N2CCC2)nc1CN1C(=O)O[C@H](c2cc(C(F)(F)F)cc(C(F)(F)F)c2)[C@@H]1C` [Example 125], the IC50 under setting [1] turned out to be 60 nM.

For the molecule `COc1ccc(CCC(=O)O)cc1-c1cnc(N2CCC2)nc1CN1C(=O)O[C@H](c2cccc(C(F)(F)F)c2)[C@@H]1C` [Example 273], the IC50 under setting [1] came out at 2300 nM.

Consider `COc1ccc([C@@H]2C[C@H]2C(N)=O)cc1-c1ccc(N2CCC2)nc1CN1C(=O)O[C@H](c2cccc(C(F)(F)F)c2)[C@@H]1C` [Example 252], for which the IC50 under setting [1] worked out at 63 nM. For `COC(=O)c1sc(-c2ccc(OC)c(-c3ccc(N4CCC4)nc3CN3C(=O)O[C@H](c4cc(C(F)(F)F)cc(C(F)(F)F)c4)[C@@H]3C)c2)c(C)c1C` [Example 52], the IC50 under setting [1] was 15 nM. For the molecule `COc1ccc(-c2nn(C)c(C(=O)O)c2C)cc1-c1ccc(N2CCC2)nc1CN1C(=O)O[C@H](c2cc(C(F)(F)F)cc(C(F)(F)F)c2)[C@@H]1C` [Example 94], under setting [1], the IC50 is 12 nM. As for `COc1ccc([C@H]2CC[C@H](C(=O)O)CC2)cc1-c1ccc(N2CC(F)(F)C2)nc1CN1C(=O)O[C@H](c2cc(C)cc(C(F)(F)F)c2)[C@@H]1C` [Example 293], the IC50 under setting [1] worked out at 7 nM. Turning to `COc1ccc(-c2ccc(C(=O)O)cc2C)cc1-c1cnc(N2CC(OC)C2)nc1CN1C(=O)O[C@H](c2cc(C(F)(F)F)cc(C(F)(F)F)c2)[C@@H]1C` [Example 164], the IC50 under setting [1] was determined as 16 nM.

For the molecule `COc1ccc(C(C)(C)CC(=O)O)cc1-c1ccc(N2CCC2)nc1CN1C(=O)O[C@H](c2cc(C)cc(C)c2)[C@@H]1C` [Example 226], under setting [1], the IC50 stood at 110 nM. The same measure, in the same setting: the value for `CCOC(=O)C[C@@H]1CCc2cc(OC)c(-c3ccc(N4CCC4)nc3CN3C(=O)O[C@H](c4cc(C)cc(C)c4)[C@@H]3C)cc21` [Example 205] was 54 nM; that for `COC(=O)c1cc(-c2ccc(OC)c(-c3ccc(N4CCC4)nc3CN3C(=O)O[C@H](c4cc(C(F)(F)F)cc(C(F)(F)F)c4)[C@@H]3C)c2)cs1` [Example 49] was 98 nM; that for `COC(=O)c1ccc(-c2ccc(OC)c(-c3ccc(N4CCC4)nc3CN3C(=O)O[C@H](c4cc(C(F)(F)F)cc(C(F)(F)F)c4)[C@@H]3C)c2)s1` [Example 48] was 65 nM. Take `COC(=O)CCc1ccc(OC2CC2)c(-c2ccc(N3CCC3)nc2CN2C(=O)O[C@H](c3cc(C(F)(F)F)cc(C(F)(F)F)c3)[C@@H]2C)c1` [Example 213]: under setting [1], the IC50 was found to be 14 nM. For the molecule `COc1ccc(C2C[C@@H]2C(=O)O)cc1-c1cnc(N2CC(F)(F)C2)nc1CN1C(=O)O[C@H](c2cc(C(F)(F)F)cc(C(F)(F)F)c2)[C@@H]1C` (stereo partly shown) [Example 163], the IC50 under setting [1] came to 14 nM. For the molecule `CCOC(=O)c1csc(-c2ccc(OC)c(-c3ccc(N4CCC4)nc3CN3C(=O)O[C@H](c4cc(C(F)(F)F)cc(C(F)(F)F)c4)[C@@H]3C)c2)n1` [Example 54], the IC50 under setting [1] stood at 189 nM. As for `COc1ccc(CCC(=O)O)cc1-c1ccc(N2CCC2)nc1CN1C(=O)O[C@H](c2cc(F)cc(F)c2)[C@@H]1C` [Example 82], the IC50 under setting [1] was 484 nM. On to `COC(=O)c1cc(C)c(-c2ccc(OC)c(-c3ccc(N4CCC4)nc3CN3C(=O)O[C@H](c4cc(C(F)(F)F)cc(C(F)(F)F)c4)[C@@H]3C)c2)s1` [Example 46, Methyl 5-{3-[6-azetidin-1-yl-2-({(4S,5R)-5-[3,5-bis(trifluoromethyl)phenyl]-4-methyl-2-oxo-1,3-oxazolidin-3-yl}methyl)pyridin-3-yl]-4-methoxyphenyl}-4-methylthiophene-2-carboxylate], for which, under setting [1], the IC50 was 10 nM.

Regarding `COc1ccc([C@H]2C[C@H](C(=O)O)C2)cc1-c1ccc(N2CCC2)nc1CN1C(=O)O[C@H](c2cc(C(F)(F)F)cc(C(F)(F)F)c2)[C@@H]1C` [Example 90], the IC50 under setting [1] was 6 nM. As for `COc1ccc(-c2ccc(C(=O)O)cc2C)cc1-c1ccc(N2CCC2)nc1CN1C(=O)O[C@H](c2cccc(C)c2)[C@@H]1C` [Example 237], the IC50 under setting [1] stood at 10 nM.

Turning to `COc1ccc(-c2nc(C)c(C(=O)O)s2)cc1-c1ccc(N2CCC2)nc1CN1C(=O)O[C@H](c2cc(C(F)(F)F)cc(C(F)(F)F)c2)[C@@H]1C` [Example 116], the IC50 under setting [1] worked out at 77 nM. Turning to `COc1cc(F)c(-c2ccc(C(=O)O)cc2C)cc1-c1ccc(N2CCC2)nc1CN1C(=O)O[C@H](c2cc(F)c(F)c(F)c2)[C@@H]1C` [Example 102], the IC50 under setting [1] was 8 nM. The same measure, in the same setting: the figure for `COc1ccc([C@H]2C[C@H](C(=O)O)C2)cc1-c1c(C)cc(N2CCC2)nc1CN1C(=O)O[C@H](c2cc(C(F)(F)F)cc(C(F)(F)F)c2)[C@@H]1C` [Example 97] is 4 nM; for `COc1ccc(-c2cc(C(=O)O)co2)cc1-c1ccc(N2CCC2)nc1CN1C(=O)O[C@H](c2cc(C(F)(F)F)cc(C(F)(F)F)c2)[C@@H]1C` [Example 113] it is 29 nM; for `COC(=O)CC(C)(C)c1ccc(OC)c(-c2ccc(N3CCC3)nc2CN2C(=O)O[C@H](c3cc(C)cc(C)c3)[C@@H]2C)c1` [Example 202] it is 16 nM. In the case of `CCc1ccc(-c2ccc(C(=O)OC)cc2C)cc1-c1cnc(N2CC(F)(F)C2)nc1CN1C(=O)O[C@H](c2cc(C(F)(F)F)cc(C(F)(F)F)c2)[C@@H]1C` [Example 133], the IC50 under setting [1] was determined as 39 nM. On to `COc1ccc(CCC(=O)O)cc1-c1cnc(N2CC(OC)C2)nc1CN1C(=O)O[C@H](c2cc(C(F)(F)F)cc(C(F)(F)F)c2)[C@@H]1C` [Example 176], for which, under setting [1], the IC50 came to 415 nM. Take `COC(=O)c1cc(-c2ccc(OC)c(-c3ccc(N4CCC4)nc3CN3C(=O)O[C@H](c4cc(C(F)(F)F)cc(C(F)(F)F)c4)[C@@H]3C)c2)no1` [Example 28]: the IC50 under setting [1] stood at 80 nM. On to `COc1ccc(CCC(=O)O)cc1-c1cnc(N2CC(F)C2)nc1CN1C(=O)O[C@H](c2cc(C(F)(F)F)cc(C(F)(F)F)c2)[C@@H]1C` [Example 172], for which, under setting [1], the IC50 worked out at 35 nM. Consider `COC(=O)[C@H]1CC[C@H](c2ccc(Cl)c(-c3cnc(N4CC(F)(F)C4)nc3CN3C(=O)O[C@H](c4cc(C(F)(F)F)cc(C(F)(F)F)c4)[C@@H]3C)c2)CC1` [Example 147], for which the IC50 under setting [1] worked out at 94 nM.

For `CCOC(=O)[C@@H]1C[C@H]1c1ccc(CC)c(-c2ccc(N3CCC3)nc2CN2C(=O)O[C@H](c3cc(C(F)(F)F)cc(C(F)(F)F)c3)[C@@H]2C)c1` [Example 22], the IC50 under setting [1] was found to be 11 nM. On the same count and under the same terms, the value for `COc1ccc([C@H]2C[C@@H](C(=O)OC)C2)cc1-c1c(C)cc(N2CCC2)nc1CN1C(=O)O[C@H](c2cc(C(F)(F)F)cc(C(F)(F)F)c2)[C@@H]1C` (single isomer, unassigned) [Example 41] was 4 nM; that for `COC(=O)Cc1ccc(OC)c(-c2ccc(N3CCC3)nc2CN2C(=O)O[C@H](c3cc(C(F)(F)F)cc(C(F)(F)F)c3)[C@@H]2C)c1` [Example 8] was 12 nM. Consider `COc1cc(F)c(C(C)C)cc1-c1cnc(N2CC(F)C2)nc1CN1C(=O)O[C@H](c2cc(C3CC3)cc(C(F)(F)F)c2)[C@@H]1C` [Example 303, (4S,5R)-5-[3-cyclopropyl-5-(trifluoromethyl)phenyl]-3-({2-(3-fluoroazetidin-1-yl)-5-[4-fluoro-2-methoxy-5-(propan-2-yl)phenyl]pyrimidin-4-yl}methyl)-4-methyl-1,3-oxazolidin-2-one], for which the IC50 (value printed with the example, serum level not stated there, read-out: RTA) is 98 nM.
